Experimental data: PubChem BioAssay (NCI)
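Each compound was tested at five concentrations against cells in 96-well plates for 48 hours. GI50 marks 50% less growth. TGI denotes the concentration required for complete inhibition of growth.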

Key:
Assay in all cases: growth of human tumour cells (NCI), 48 h
786-0 renal = test system: 786-0 renal
A498 renal = test system: A498 renal
A549 NSCLC = test system: A549 NSCLC
ACHN renal = test system: ACHN renal
BT-549 breast = test system: BT-549 breast
CAKI-1 renal = test system: CAKI-1 renal
CCRF-CEM leukemia = test system: CCRF-CEM leukemia
COLO 205 colon = test system: COLO 205 colon
DU-145 prostate = test system: DU-145 prostate
EKVX NSCLC = test system: EKVX NSCLC
HCC-2998 colon = test system: HCC-2998 colon
HCT-116 colon = test system: HCT-116 colon
HCT-15 colon = test system: HCT-15 colon
HL-60(TB) leukemia = test system: HL-60(TB) leukemia
HOP-62 NSCLC = test system: HOP-62 NSCLC
HOP-92 NSCLC = test system: HOP-92 NSCLC
HS 578T breast = test system: HS 578T breast
HT29 colon = test system: HT29 colon
IGROV1 ovarian = test system: IGROV1 ovarian
K-562 leukemia = test system: K-562 leukemia
LOX IMVI melanoma = test system: LOX IMVI melanoma
M14 melanoma = test system: M14 melanoma
MALME-3M melanoma = test system: MALME-3M melanoma
MCF7 breast = test system: MCF7 breast
MDA-MB-231 breast = test system: MDA-MB-231 breast
MDA-MB-435 = test system: MDA-MB-435
MOLT-4 leukemia = test system: MOLT-4 leukemia
NCI-H226 lung = test system: NCI-H226 lung
NCI-H23 lung = test system: NCI-H23 lung
NCI-H460 lung = test system: NCI-H460 lung
NCI-H522 lung = test system: NCI-H522 lung
NCI/ADR-RES ovarian = test system: NCI/ADR-RES ovarian
OVCAR-3 ovarian = test system: OVCAR-3 ovarian
OVCAR-4 ovarian = test system: OVCAR-4 ovarian
OVCAR-5 ovarian = test system: OVCAR-5 ovarian
OVCAR-8 ovarian = test system: OVCAR-8 ovarian
PC-3 prostate = test system: PC-3 prostate
RPMI-8226 leukemia = test system: RPMI-8226 leukemia
RXF 393 renal = test system: RXF 393 renal
SF-268 CNS = test system: SF-268 CNS
SF-295 CNS = test system: SF-295 CNS
SF-539 CNS = test system: SF-539 CNS
SK-MEL-2 melanoma = test system: SK-MEL-2 melanoma
SK-MEL-28 melanoma = test system: SK-MEL-28 melanoma
SK-MEL-5 melanoma = test system: SK-MEL-5 melanoma
SK-OV-3 ovarian = test system: SK-OV-3 ovarian
SN12C renal = test system: SN12C renal
SNB-19 CNS = test system: SNB-19 CNS
SNB-75 CNS = test system: SNB-75 CNS
SR leukemia = test system: SR leukemia
SW-620 colon = test system: SW-620 colon
TK-10 renal = test system: TK-10 renal
U251 CNS = test system: U251 CNS
UACC-257 melanoma = test system: UACC-257 melanoma
UACC-62 melanoma = test system: UACC-62 melanoma
UO-31 renal = test system: UO-31 renal

Structure (SMILES): C=C1C(=O)O[C@@H]2C[C@@H](C)/C=C\C(=O)[C@](C)(OC(C)=O)C[C@H](OC(=O)/C(C)=C\C)[C@@H]12
- GI50 (786-0 renal): 2.66 µM
- TGI (786-0 renal): 5.93 µM
- GI50 (A498 renal): 6.15 µM
- TGI (A498 renal): 13.5 µM
- GI50 (A549 NSCLC): 7.78 µM
- TGI (A549 NSCLC): 24.2 µM
- GI50 (ACHN renal): 0.466 µM
- TGI (ACHN renal): 0.885 µM
- GI50 (BT-549 breast): 3.02 µM
- TGI (BT-549 breast): 6.31 µM
- GI50 (CAKI-1 renal): 1.09 µM
- TGI (CAKI-1 renal): 3.97 µM
- GI50 (CCRF-CEM leukemia): 0.834 µM
- TGI (CCRF-CEM leukemia): 4.41 µM
- GI50 (COLO 205 colon): 0.75 µM
- TGI (COLO 205 colon): 2.6 µM
- GI50 (DU-145 prostate): 2.52 µM
- TGI (DU-145 prostate): 6.12 µM
- GI50 (EKVX NSCLC): 2.63 µM
- TGI (EKVX NSCLC): 6.27 µM
- GI50 (HCC-2998 colon): 4.14 µM
- TGI (HCC-2998 colon): 8.31 µM
- GI50 (HCT-116 colon): 0.835 µM
- TGI (HCT-116 colon): 3.13 µM
- GI50 (HCT-15 colon): 0.675 µM
- TGI (HCT-15 colon): 2.13 µM
- GI50 (HL-60(TB) leukemia): 1 µM
- TGI (HL-60(TB) leukemia): 5.75 µM
- GI50 (HOP-62 NSCLC): 7.2 µM
- TGI (HOP-62 NSCLC): 20.7 µM
- GI50 (HOP-92 NSCLC): 3.74 µM
- TGI (HOP-92 NSCLC): 8.05 µM
- GI50 (HS 578T breast): 12.3 µM
- TGI (HS 578T breast): > 25 µM
- GI50 (HT29 colon): 1.06 µM
- TGI (HT29 colon): 4 µM
- GI50 (IGROV1 ovarian): 4.31 µM
- TGI (IGROV1 ovarian): 9.91 µM
- GI50 (K-562 leukemia): 0.978 µM
- TGI (K-562 leukemia): > 25 µM
- GI50 (LOX IMVI melanoma): 2.88 µM
- TGI (LOX IMVI melanoma): 6.18 µM
- GI50 (M14 melanoma): 3.69 µM
- TGI (M14 melanoma): 11 µM
- GI50 (MALME-3M melanoma): 1.1 µM
- TGI (MALME-3M melanoma): 5.11 µM
- GI50 (MCF7 breast): 0.971 µM
- TGI (MCF7 breast): 5.6 µM
- GI50 (MDA-MB-231 breast): 1.7 µM
- TGI (MDA-MB-231 breast): 5.89 µM
- GI50 (MDA-MB-435): 3.91 µM
- TGI (MDA-MB-435): 12.4 µM
- GI50 (MOLT-4 leukemia): 0.896 µM
- TGI (MOLT-4 leukemia): 4.25 µM
- GI50 (NCI-H226 lung): 3.48 µM
- TGI (NCI-H226 lung): 6.83 µM
- GI50 (NCI-H23 lung): 1.21 µM
- TGI (NCI-H23 lung): 5.95 µM
- GI50 (NCI-H460 lung): 7.02 µM
- TGI (NCI-H460 lung): 23.6 µM
- GI50 (NCI-H522 lung): 0.508 µM
- TGI (NCI-H522 lung): 1.22 µM
- GI50 (NCI/ADR-RES ovarian): 2.8 µM
- TGI (NCI/ADR-RES ovarian): > 25 µM
- GI50 (OVCAR-3 ovarian): 0.94 µM
- TGI (OVCAR-3 ovarian): 3.2 µM
- GI50 (OVCAR-4 ovarian): 1.58 µM
- TGI (OVCAR-4 ovarian): 8.48 µM
- GI50 (OVCAR-5 ovarian): 2.53 µM
- TGI (OVCAR-5 ovarian): 5.97 µM
- GI50 (OVCAR-8 ovarian): 1.11 µM
- TGI (OVCAR-8 ovarian): 23.9 µM
- GI50 (PC-3 prostate): 4.77 µM
- TGI (PC-3 prostate): 13.7 µM
- GI50 (RPMI-8226 leukemia): 0.893 µM
- TGI (RPMI-8226 leukemia): 2.94 µM
- GI50 (RXF 393 renal): 0.683 µM
- TGI (RXF 393 renal): 1.87 µM
- GI50 (SF-268 CNS): 5.38 µM
- TGI (SF-268 CNS): 20.8 µM
- GI50 (SF-295 CNS): 7.73 µM
- TGI (SF-295 CNS): 20.2 µM
- GI50 (SF-539 CNS): 3.19 µM
- TGI (SF-539 CNS): 6.52 µM
- GI50 (SK-MEL-2 melanoma): 4.45 µM
- TGI (SK-MEL-2 melanoma): 12.1 µM
- GI50 (SK-MEL-28 melanoma): 1.81 µM
- TGI (SK-MEL-28 melanoma): 5.49 µM
- GI50 (SK-MEL-5 melanoma): 3.7 µM
- TGI (SK-MEL-5 melanoma): 7.25 µM
- GI50 (SK-OV-3 ovarian): 11.1 µM
- TGI (SK-OV-3 ovarian): > 25 µM
- GI50 (SN12C renal): 5.73 µM
- TGI (SN12C renal): > 25 µM
- GI50 (SNB-19 CNS): 11.5 µM
- TGI (SNB-19 CNS): > 25 µM
- GI50 (SNB-75 CNS): 4.07 µM
- TGI (SNB-75 CNS): 17.6 µM
- GI50 (SR leukemia): 0.845 µM
- TGI (SR leukemia): 5.2 µM
- GI50 (SW-620 colon): 1.01 µM
- TGI (SW-620 colon): 3.54 µM
- GI50 (TK-10 renal): 0.996 µM
- TGI (TK-10 renal): 3.32 µM
- GI50 (U251 CNS): 3.7 µM
- TGI (U251 CNS): 8.64 µM
- GI50 (UACC-257 melanoma): 2.66 µM
- TGI (UACC-257 melanoma): 6.77 µM
- GI50 (UACC-62 melanoma): 1.55 µM
- TGI (UACC-62 melanoma): 5.93 µM
- GI50 (UO-31 renal): 2.91 µM
- TGI (UO-31 renal): 6 µM
